Experimental data reported in paper PMC10391610, “Survivin prevents the polycomb repressor complex 2 from methylating histone 3 lysine 27” (iScience, 2023).

Assays:
[1] = system: H3K27me3 / H3K27ac peaks in CD4+ T cells; test: ChIP-seq of H3K27me3 and H3K27ac after YM155 treatment; assay type: cell-based, human
Experimental: (§1) Human peripheral blood mononuclear cells were isolated from venous peripheral blood by density gradient separation on Lymphoprep (Axis-Shield PoC As, Dundee, Scotland). CD4^+ cells were isolated by positive selection (Invitrogen, 11331D), and cultured (1.25×10^6 cells/ml) in wells coated with anti-CD3 antibody (0.5 mg/ml; OKT3, Sigma-Aldrich, Saint Luis, Missouri, USA), in RPMI medium supplemented with 50 μM β-mercaptoethanol (Gibco, Waltham, Massachusetts, USA), Glutamax 2 mM (Gibco), Gentamicin 50 μg/ml (Sanofi-Aventis, Paris, France) and 10% fetal bovine serum (Sigma-Aldrich) at 37°C in a humidified 5% CO2 atmosphere. Cells were treated with survivin inhibitors serpantronium bromide, YM155[22] (YM155, Selleck Chemicals, Houston, TX), as indicated. The cells were stimulated with recombinant IFNg (50 ng/ml; Peprotech, Cranbury, NJ, USA) during the last 2 h and harversted for RNA-seq. Supernatants were used to measure cytokine levels.
For ChIP-seq analysis, CD4^+ cells isolated from 12 women were stimulated with concanavalin A (ConA, 0.625 μg/ml, Sigma-Aldrich), and lipopolysaccharide (LPS) (5 μg/ml, Sigma-Aldrich) for 72 h and pooled in 4 independent samples for DNA purification. After shearing and pre-clearing of chromatin, 1% of the sample was saved as an input. The pre-cleared chromatin was incubated with 2 μg anti-Survivin (10811, Santa Cruz Biotechnology). For ChIPseq targeting histone modifications CD4^+ cells from 3 healthy women were stimulated with concanavalin A and LPS and treated with sepantronium bromide, YM155, 0 or 10 ng/ml, for 24 h. The chromatin was pre-cleared on the beads coated with Sepharose A and incubated with anti-H3K27ac (C15410196, Diagenode), or anti-H3K27me3 (C15410195, Diagenode). The cells were cross-linked and lysed with the EpiTect ChIP OneDay kit (Qiagen), as recommended by the manufacturer. After sonication to shear the chromatin, cellular debris was removed by pelleting. After pre-clearing, 1% of the sample was saved as an input fraction and used as background for nonspecific chromatin binding. Pre-cleared chromatin was incubated with 2 μg of anti-survivin (10811, Santa Cruz Biotechnology, Santa Cruz, CA, USA). The immune complexes were washed, the cross-links were reversed, and the DNA was purified with the EpiTect ChIP OneDay kit (Qiagen) as recommended by the manufacturer. The quality of purified DNA was assessed with TapeStation (Agilent, Santa Clara, CA, USA). DNA libraries were prepared with ThruPLEX (Rubicon) and sequenced with a Hiseq2000 sequencing system (Illumina) according to the manufacturer’s protocols. Bcl-files were converted and demultiplexed to fastq with bcl2fastq (Illumina).
The fastq sequencing files were mapped to the human reference genome (hg38) using the STAR aligner[58] with default parameters apart from setting the alignIntronMax flag to 1 for end-to-end mapping. Quality control of the sequenced material was performed by FastQC tool using MultiQC v.0.9dev0 (Babraham Institute, Cambridge, U.K.). Peak calling was performed using the default parameters. Peaks were identified for enrichment of the immunoprecipitation fraction against input (adjusted p < 10^−5) and annotated by HOMER software[59] in standard mode to closest transcription start site (TSS). Peaks with overlapping localization by at least 1 nucleotide in several samples were merged and further on referred to as one peak. […]

[2] = system: gene expression in CD4+ cells; test: RNA-seq after YM155 treatment; assay type: cell-based, human
Experimental: as §1
RNA from the CD4^+ cell cultures was prepared using the Norgen Total micro mRNA kit (Norgen, Ontario, Canada). Quality control was done by Bioanalyzer RNA6000 Pico on Agilent2100 (Agilent, Santa Clara, CA, USA). Deep sequencing was done by RNAseq (Hiseq2000, Illumina) at the Science for Life Laboratory, Huddinge, Sweden. Raw sequence data were obtained in Bcl-files and converted into fastq text format using the bcl2fastq program from Illumina.
Mapping of transcripts was done using Genome UCSC annotation set for hg38 human genome assembly. Analysis was performed using the core Bioconductor packages in R-studio v.3.6.3. Differentially expressed genes in CD4^+ cells treated with YM155 were identified using DESeq2 (v.1.26.0) with Benjamini-Hochberg adjustment for multiple testing.
Supplementary file mmc2.xlsx: Table S1. Differentially expressed protein coding genes connected to the changeable H3K27me3 peaks in CD4^+ T cells, related to Figure 1 CD4^+ T cells (n=4) were cultured with survivin inhibitor YM155 (0 and 10 ng/ml). Expression was analyzed by RNA-seq and compared by paired DESeq2 test.

[3] = system: survivin transcription; parameters: method as in PMID 17804712; details: cited from earlier work
[4] = system: XIAP, cIAP2, Bcl-XL, Bcl-2, Bad, p53, cIAP1, STAT3; parameters: method as in 2 sources, ref 22 = [22]; PMID 17804712; doi:10.1158/0008-5472.CAN-07-1343; 22 Nakahara T. Kita A. Yamanaka K. Mori M. Amino N. Takeuchi M. Tominaga F. Hatakeyama S. Kinoyama I. Matsuhisa A. YM155, a novel small-molecule survivin suppressant, induces regression of established ||| ref 23 = [23]; PMID 18927289; doi:10.1158/1078-0432.CCR-08-0468; 23 Iwasa T. Okamoto I. Suzuki M. Nakahara T. Yamanaka K. Hatashita E. Yamada Y. Fukuoka M. Ono K. Nakagawa K. Radiosensitizing effect of YM155, a novel small-molecule survivin suppressant, in non-smal; details: cited from earlier work

COCCn1c2c([n+](Cc3cnccn3)c1C)C(=O)c1ccccc1C2=O [YM155, sepantronium bromide]
H3K27 acetylation after survivin inhibition (in words) ([1]; CD4+ T cells, YM155 10 ng/ml, 24 h): virtually unaffected | proportion of H3K27me3 peaks with increased H3K27me3 deposition ([1]; CD4+ T cells, YM155 10 ng/ml, 24 h, ConA/LPS stimulated): 85% | increase in tag counts, middle H3K27me3 peak (first) ([1]; HOX-B cluster, chromosome 17): 51% | increase in tag counts, middle H3K27me3 peak (second) ([1]; HOX-B cluster, chromosome 17): 69% | number of H3K27me3 peaks that increased the count by 30% ([1]; YM155-treated CD4+ cell cultures): 7413 | caudal HOX-B gene expression (in words) ([2]; HOX-B8, -B9, and -B13, YM155, CD4+ cells): a change of the HOX-B genes, which was clearly seen in the caudal HOX-B8, -B9, and -B13 genes | number of genes downregulated (of 157) ([2]; genes connected to changed H3K27me3 peaks, YM155-treated CD4+ cells): 100 | number of protein-coding genes with significantly changed mRNA levels ([2]; genes connected to regulatory elements at changed H3K27me3 peaks, nominal p < 0.01, YM155-treated CD4+ cells): 157 | effect on survivin transcription (in words) [3]: specifically inhibits survivin transcription | effect on expression of XIAP, cIAP2, Bcl-XL, Bcl-2, Bad (in words) [4]: does not change the expression | effect on expression of p53, cIAP1, STAT3 (in words) [4]: does not change the expression
